Patent publication US4175081A, “5-Substituted thiadiazole ureas” (priority 1977, dated 1979)

Tests used:
Crabgrass (CG) [1] = assay: Pre-emergence herbicide test; assay type: in vivo, Digitaria sanquinalis; settings: Digitaria sanguinalis, pre-emergence, 336 h, two weeks after treatment; for pest or weed control at 8966.8 g/ha: 8 lb/acre
Procedure, shortened: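 Crabgrass (Digitaria sanquinalis) was surface seeded in 3' plastic pots of potting soil, covered with screened soil, and watered by sub-irrigation in greenhouse trays. Pots were seeded one day before spraying in a hood with a moving belt and fixed nozzle. Plants stayed in the greenhouse on sub-irrigation, and pre-emergence control was rated visually two weeks after treatment.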

[2] = tested on: Yellow foxtail grass (YF); assay: Pre-emergence herbicide test; assay type: in vivo, Setaria glauca; settings: Setaria, 336 h, two weeks after treatment; for pest or weed control at 8966.8 g/ha: 8 lb/acre
Protocol: (§1) Yellow foxtail grass (YF)--Setaria glauca
(§2) All crop and weed species were planted individually in 3' plastic pots containing potting soil. Four seeds each of corn, cotton, and snapbeans were seeded to a depth equal to the diameter of the seed. All other species were surface seeded and sprinkled with screened soil in an amount sufficient to cover the seed. Immediately after planting, all pots were watered by sub-irrigation in greenhouse trays. Pots for the pre-emergence phase were seeded one day before treatment.
(§3) Compounds were tested at rates of application equivalent to 8 lbs. of actual compound per acre in a spray volume of 38 gallons per acre. Spray hood constants required to deliver the above volume are as follows:
(§4) Formulations for spray applications were prepared in 50 ml volumes with the following three components:
(§5) Formulations for the 4 lbs/acre rate were prepared by adjusting the amount of active ingredient accordingly.
(§6) Spray applications were made in a hood containing a removable belt and fixed spray nozzle. For passage through the spray hood, one pot of each specie (pre-emergence phase) was placed on the rear half of the flat. Treatments were removed to the greenhouse after spraying. Watering during the observation period was done only by sub-irrigation.
(§7) Two weeks after treatment, pre- and post-emergence injury or control was visually rated, and the results were as shown in the following tables. Pre-emergence data are provided in TABLE III and post-emergence data are provided in TABLE IV, for compounds having the formula illustrated in TABLE I. Correspondingly, pre-emergence and post-emergence data, respectively, are set forth in TABLES V AND VI, for compounds having the formula illustrated in TABLE II.

Johnson grass (JG) [3] = assay: Pre-emergence herbicide test; assay type: in vivo, Sorgum helepense; settings: Sorghum halepense, 336 h, two weeks after treatment; for pest or weed control at 8966.8 g/ha: 8 lb/acre
Procedure, shortened: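 Pots seeded one day before spraying; compound applied pre-emergence at 8 lbs/acre (or 4 lbs/acre) in 38 gallons/acre spray volume. Sub-irrigated in greenhouse; injury/control rated visually two weeks after treatment.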

Barnyard grass (BG) [4] = assay: Pre-emergence herbicide test; assay type: in vivo; settings: Echinochloa crus-galli, 336 h, two weeks after treatment; for pest or weed control at 8966.8 g/ha: 8 lb/acre
Procedure, shortened: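 Barnyard grass surface-seeded in potting soil and sprayed pre-emergence one day after seeding, at 8 or 4 lb compound/acre in 38 gal/acre spray volume. Pots kept in greenhouse with sub-irrigation only; injury or control rated visually two weeks after treatment.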

Amaranth pigweed (PW) [5] = assay: Pre-emergence herbicide test; assay type: in vivo, Amaranthus retroflexus; settings: 336 h, two weeks after treatment; for pest or weed control at 8966.8 g/ha: 8 lb/acre
Procedure, shortened: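 Pigweed was surface-seeded in potted soil one day before spraying at 8 lbs compound per acre, or 4 lbs/acre, in 38 gallons per acre. Pots were kept in the greenhouse with sub-irrigation only; injury or control was rated visually two weeks after treatment.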

Turnip (TP) [6] = assay: Pre-emergence herbicide test; assay type: in vivo, Brassica sp.; settings: Brassica rapa, pre-emergence, 336 h, two weeks after treatment; for pest or weed control at 8966.8 g/ha: 8 lb/acre
Procedure, shortened: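 Turnip (Brassica sp.) seeds were surface sown in 3' plastic pots of potting soil, covered with a thin layer of screened soil, and sub-irrigated in greenhouse trays. Pots were seeded one day ahead of treatment, sprayed pre-emergence under a hood with a fixed nozzle and moving belt, then kept in the greenhouse.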

Cotton (CT) [7] = assay: Pre-emergence herbicide test; assay type: in vivo, Gossypium hirsutum var. DPL smooth leaf; settings: Gossypium hirsutum, 336 h, two weeks after treatment; for pest or weed control at 8966.8 g/ha: 8 lb/acre
Procedure, shortened: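 Crop and weed species seeded one day before treatment, then sprayed pre-emergence at 8 lbs actual compound per acre (also 4 lbs/acre formulations) in 38 gallons per acre. Pots kept in greenhouse with sub-irrigation only; injury or control visually rated two weeks after treatment.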

Corn (CN) [8] = assay: Pre-emergence herbicide test; assay type: in vivo; settings: Zea mays, 336 h, two weeks after treatment; for pest or weed control at 8966.8 g/ha: 8 lb/acre
Procedure, shortened: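 Four corn seeds per pot, sown at seed-diameter depth one day before spraying, got soil surface treatment at 8 lbs/acre (4 lbs/acre formulations also prepared) in 38 gallons/acre. Pots were greenhouse-held with sub-irrigation only. Injury or control was scored visually two weeks after treatment.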

Bean (BN) [9] = assay: Pre-emergence herbicide test; assay type: in vivo, Phaseolus vulgaris var. Black Valentine; settings: Phaseolus vulgaris, 336 h, two weeks after treatment; for pest or weed control at 8966.8 g/ha: 8 lb/acre
Procedure, shortened: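 Black Valentine bean was seeded in potting soil one day before spraying. Compound was applied pre-emergence at 8 lbs/acre (also 4 lbs/acre) in 38 gallons per acre. Plants were sub-irrigated and injury or control was rated visually after two weeks.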

Crabgrass (CG) [10] = assay: Post-emergence herbicide test; assay type: in vivo, Digitaria sanquinalis; settings: Digitaria sanguinalis, post-emergence, 336 h, two weeks after treatment; for pest or weed control at 8966.8 g/ha: 8 lb/acre
Procedure, shortened: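 Crabgrass (Digitaria sanquinalis) was surface seeded individually in 3' plastic pots of potting soil, covered with screened soil, and watered by sub-irrigation in greenhouse trays. Planting was staggered so seedlings reached the target stage together. Post-emergence sprays were applied in a hood with a removable belt and fixed nozzle, and control was visually rated two weeks after treatment.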

[11] = tested on: Yellow foxtail grass (YF); assay: Post-emergence herbicide test; assay type: in vivo, Setaria glauca; settings: Setaria, 336 h, two weeks after treatment; for pest or weed control at 8966.8 g/ha: 8 lb/acre
Protocol: as §1, §2
Planting dates for the post-emergence phase were varied so that all seedlings would reach the desired stage of development simultaneously. The proper stage of seedling development for treatment in the post-emergence phase is as follows:
as §3, §4, §5, §6, §7

Johnson grass (JG) [12] = assay: Post-emergence herbicide test; assay type: in vivo, Sorgum helepense; settings: Sorghum halepense, 336 h, two weeks after treatment; for pest or weed control at 8966.8 g/ha: 8 lb/acre
Procedure, shortened: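 Greenhouse pot-grown seedlings sprayed post-emergence at 8 lbs compound per acre (some at 4 lbs/acre) in 38 gallons per acre spray volume. Sub-irrigated thereafter. Injury/control rated visually two weeks after treatment.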

Barnyard grass (BG) [13] = assay: Post-emergence herbicide test; assay type: in vivo; settings: Echinochloa crus-galli, 336 h, two weeks after treatment; for pest or weed control at 8966.8 g/ha: 8 lb/acre
Procedure, shortened: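 Greenhouse pot-grown barnyard grass seedlings sprayed post-emergence at 8 lbs active compound per acre (some at 4 lbs/acre) in 38 gallons per acre, then sub-irrigated. Injury or control rated visually two weeks after treatment.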

Amaranth pigweed (PW) [14] = assay: Post-emergence herbicide test; assay type: in vivo, Amaranthus retroflexus; settings: 336 h, two weeks after treatment; for pest or weed control at 8966.8 g/ha: 8 lb/acre
Procedure, shortened: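 Pot-grown pigweed was sprayed post-emergence at the 1–2 true-leaf stage with compound at rates equivalent to 8 lbs per acre (formulations also prepared for 4 lbs/acre) in 38 gallons per acre, using a hood with fixed nozzle. Plants were sub-irrigated in the greenhouse, and injury or control was rated visually two weeks after treatment.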

Turnip (TP) [15] = assay: Post-emergence herbicide test; assay type: in vivo, Brassica sp.; settings: Brassica rapa, post-emergence, 336 h, two weeks after treatment; for pest or weed control at 8966.8 g/ha: 8 lb/acre
Procedure, shortened: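 A greenhouse post-emergence herbicide test on turnip. Seeds were sown on the surface of potting soil in 3' plastic pots, lightly covered with screened soil and watered from below. Planting was timed so seedlings had 1 or 2 true leaves above the cotyledons at spraying, done in a hood with a fixed nozzle. Control or injury was scored by eye after two weeks.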

Cotton (CT) [16] = assay: Post-emergence herbicide test; assay type: in vivo, Gossypium hirsutum var. DPL smooth leaf; settings: Gossypium hirsutum, post-emergence, 336 h, two weeks after treatment; for pest or weed control at 8966.8 g/ha: 8 lb/acre
Procedure, shortened: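 Cotton (Gossypium hirsutum var. DPL smooth leaf) was grown in 3' plastic pots of potting soil, four seeds per pot, planted at a depth equal to the seed diameter and watered by sub-irrigation. At the stage of expanded cotyledons with the first true leaf 1' long, plants were sprayed post-emergence in a hood with a fixed nozzle over a moving belt. Percent control was rated visually two weeks later.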

Corn (CN) [17] = assay: Post-emergence herbicide test; assay type: in vivo; settings: Zea mays, 336 h, two weeks after treatment; for pest or weed control at 8966.8 g/ha: 8 lb/acre
Procedure, shortened: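 Greenhouse seedlings grown in potting soil and sprayed post-emergence at 8 lbs compound/acre (formulations also made for 4 lbs/acre) in 38 gallons/acre spray volume. Watering by sub-irrigation only. Injury or control rated visually two weeks after treatment.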

Bean (BN) [18] = assay: Post-emergence herbicide test; assay type: in vivo, Phaseolus vulgaris var. Black Valentine; settings: Phaseolus vulgaris, post-emergence, 336 h, two weeks after treatment; for pest or weed control at 8966.8 g/ha: 8 lb/acre
Procedure, shortened: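 Snapbean (Phaseolus vulgaris var. Black Valentine) was tested post-emergence. Four seeds were sown in 3' plastic pots of potting soil at a depth equal to the seed diameter, then sub-irrigated in greenhouse trays. Planting dates were staggered so plants were sprayed once primary leaves had expanded, with the growing point at the primary leaf nodes.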

Row | Compound | pest or weed control at 8966.8 g/ha (Crabgrass (CG) [1]) | pest or weed control at 8966.8 g/ha [2] | pest or weed control at 8966.8 g/ha (Johnson grass (JG) [3]) | pest or weed control at 8966.8 g/ha (Barnyard grass (BG) [4]) | pest or weed control at 8966.8 g/ha (Amaranth pigweed (PW) [5]) | pest or weed control at 8966.8 g/ha (Turnip (TP) [6]) | pest or weed control at 8966.8 g/ha (Cotton (CT) [7]) | pest or weed control at 8966.8 g/ha (Corn (CN) [8]) | pest or weed control at 8966.8 g/ha (Bean (BN) [9]) | pest or weed control at 8966.8 g/ha (Crabgrass (CG) [10]) | pest or weed control at 8966.8 g/ha [11] | pest or weed control at 8966.8 g/ha (Johnson grass (JG) [12]) | pest or weed control at 8966.8 g/ha (Barnyard grass (BG) [13]) | pest or weed control at 8966.8 g/ha (Amaranth pigweed (PW) [14]) | pest or weed control at 8966.8 g/ha (Turnip (TP) [15]) | pest or weed control at 8966.8 g/ha (Cotton (CT) [16]) | pest or weed control at 8966.8 g/ha (Corn (CN) [17]) | pest or weed control at 8966.8 g/ha (Bean (BN) [18]) | other results
1 | CN(C)C(=O)N(C)c1nnc(C(F)(F)F)s1 [Example 4, 1,1,3-Trimethyl-3-[5-Trifluoromethyl-2-(1,3,4-Thiadiazolyl)] Urea] |  |  |  |  |  |  |  |  |  |  |  |  |  |  |  |  |  |  | pest or weed control at 4483.4 g/ha (Crabgrass (CG) [1]; 4 lb/acre): 100%; pest or weed control at 4483.4 g/ha ([2]; 4 lb/acre): 80%; pest or weed control at 4483.4 g/ha (Johnson grass (JG) [3]; 4 lb/acre): 40%; pest or weed control at 4483.4 g/ha (Barnyard grass (BG) [4]; 4 lb/acre): 90%; pest or weed control at 4483.4 g/ha (Amaranth pigweed (PW) [5]; 4 lb/acre): 100%; pest or weed control at 4483.4 g/ha (Turnip (TP) [6]; 4 lb/acre): 100%; pest or weed control at 4483.4 g/ha (Cotton (CT) [7]; 4 lb/acre): 70%; pest or weed control at 4483.4 g/ha (Corn (CN) [8]; 4 lb/acre): 70%; pest or weed control at 4483.4 g/ha (Bean (BN) [9]; 4 lb/acre): 90%; pest or weed control at 4483.4 g/ha (Crabgrass (CG) [10]; 4 lb/acre): 80%; pest or weed control at 4483.4 g/ha ([11]; 4 lb/acre): 90%; pest or weed control at 4483.4 g/ha (Johnson grass (JG) [12]; 4 lb/acre): 40%; pest or weed control at 4483.4 g/ha (Barnyard grass (BG) [13]; 4 lb/acre): 60%; pest or weed control at 4483.4 g/ha (Amaranth pigweed (PW) [14]; 4 lb/acre): 100%; pest or weed control at 4483.4 g/ha (Turnip (TP) [15]; 4 lb/acre): 100%; pest or weed control at 4483.4 g/ha (Cotton (CT) [16]; 4 lb/acre): 100%; pest or weed control at 4483.4 g/ha (Corn (CN) [17]; 4 lb/acre): 100%; pest or weed control at 4483.4 g/ha (Bean (BN) [18]; 4 lb/acre): 100%
2 | O=C(Nc1ccccc1)Nc1nnc(C(F)(F)F)s1 [Example 14] | 10% | 10% | 20% | 10% | 90% | 10% | 50% | 50% | 100% | 10% | 10% | 20% | 10% | 90% | 10% | 50% | 50% | 100% | 
3 | CNC(=O)Nc1nnc(OC)s1 [Example 24] | 10% | 10% | 10% | 10% | 60% | 10% | 10% | 30% | 60% | 30% | 20% | 20% | 20% | 90% | 60% | 70% | 20% |  | 
4 | CCNC(=O)Nc1nnc(SC)s1 [Example 28] | 40% | 30% | 20% | 50% | 30% | 0% | 40% | 10% | 80% | 20% | 20% | 20% | 20% | 30% | 50% | 70% | 20% | 50% | 
5 | CSc1nnc(NC(=O)NC(C)C)s1 [Example 30] | 20% | 10% | 10% | 10% | 10% |  | 10% | 10% | 50% | 20% | 20% | 20% | 20% | 50% | 40% | 70% | 20% | 100% | 
